# Laboratory results reported in the supplement of paper PMC10307832.
# Compound: CCN1CCN(c2ccc(Nc3cc(N(C)C(=O)Nc4c(Cl)c(OC)cc(OC)c4Cl)ncn3)cc2)CC1 [BGJ398] + CS(=O)(=O)CCNCc1ccc(-c2ccc3ncnc(Nc4ccc(OCc5cccc(F)c5)c(Cl)c4)c3c2)o1 [Lapatinib] (partner 2 µM)
# Test: relative viability (nuclei count vs DMSO), 5 days (fraction); higher = more cells survive
# Conditions: first compound 1 µM
# Summary of the method: (§1)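 Nuclei were stained with Hoechst during a one-step fixation (final 0.05% Triton X-100, 1% formaldehyde, 1 ug/ml Hoechst) carried out 5 days after dosing, then counted on 4× images. The cells, lung cancer lines in 1536-well plates, had been dosed by pin tool the day after seeding with one drug alone or a fixed anchor-drug dose plus five library-drug doses (not always all listed) in √10 steps. Relative viability is the nuclei count in treated wells divided by that in vehicle wells, and each value is the median of duplicate plates.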
row,Cell Line,relative viability
1,NCI-H1395,0.476

# Compound: C1=CC2=NC=CN=C2C=C1/C=C/3\C(=O)NC(=O)S3 + CS(=O)(=O)N1CCN(Cc2cc3nc(-c4cccc5[nH]ncc45)nc(N4CCOCC4)c3s2)CC1 [Pictilisib] (partner 1 µM)
# Test: as above
# Conditions: first compound 0.02 µM
# Summary of the method: as §1
row,Cell Line,relative viability
1,NCI-H2085,0.417
2,Calu-6,0.923
3,HCC-366,0.151
4,NCI-H1666,0.286
5,NCI-H596,0.465
6,LK-2,0.678
7,NCI-H2087,0.77
8,SK-MES-1,0.385
9,H3255,0.537
10,COR-L23,0.784
11,COR-L 105,0.396
12,LOU-NH91,0.528
13,NCI-H2170,0.296
14,NCI-H2405,0.488
15,HOP-62,0.409
16,HCC-44,0.615

row,Cell Line,relative viability
1,A549,0.518
2,LU99A,0.33
3,BEN,0.54
4,HARA,0.44
5,HCC-78,0.267
6,NCI-H322M,0.477
7,LCLC-97TM1,0.186
8,NCI-H2009,0.859
9,A-427,0.711
10,NCI-H661,0.392
11,NCI-H1734,0.426
12,NCI-H460,0.376
13,NCI-H2347,0.706
14,SK-LU-1,0.703
15,NCI-H1395,0.669

# Same assay, conditions: first compound 0.06325 µM
row,Cell Line,relative viability
1,NCI-H2085,0.394
2,Calu-6,1.15
3,HCC-366,0.0838
4,NCI-H1666,0.39
5,NCI-H596,0.384
6,LK-2,0.587
7,NCI-H2087,1.11
8,SK-MES-1,0.391
9,H3255,0.55
10,COR-L23,1.01
11,COR-L 105,0.435
12,IA-LM,0.524
13,LOU-NH91,0.535
14,NCI-H2170,0.273
15,NCI-H2405,0.504
16,HOP-62,0.92

row,Cell Line,relative viability
1,HCC-44,0.563
2,A549,0.646
3,LU99A,0.365
4,BEN,0.622
5,HARA,0.485
6,HCC-78,0.202
7,NCI-H322M,0.476
8,LCLC-97TM1,0.185
9,NCI-H2009,0.891
10,A-427,0.685
11,NCI-H661,0.436
12,NCI-H460,0.281
13,NCI-H2347,0.609
14,SK-LU-1,0.695
15,NCI-H1395,0.596

# Same assay, conditions: first compound 0.2 µM
row,Cell Line,relative viability
1,NCI-H2085,0.533
2,Calu-6,1.04
3,HCC-366,0.14
4,NCI-H1666,0.403
5,NCI-H596,0.394
6,LK-2,0.596
7,NCI-H2087,0.913
8,SK-MES-1,0.375
9,H3255,0.464
10,COR-L23,0.78
11,COR-L 105,0.377
12,IA-LM,0.308
13,LOU-NH91,0.535
14,NCI-H2170,0.369
15,NCI-H2405,0.428
16,HOP-62,0.695

row,Cell Line,relative viability
1,HCC-44,0.593
2,A549,0.453
3,LU99A,0.317
4,BEN,0.613
5,HARA,0.365
6,HCC-78,0.246
7,NCI-H322M,0.586
8,LCLC-97TM1,0.21
9,NCI-H2009,0.964
10,A-427,0.788
11,NCI-H661,0.513
12,NCI-H1734,0.509
13,NCI-H460,0.338
14,NCI-H2347,0.748
15,SK-LU-1,0.583
16,NCI-H1395,0.786

# Same assay, conditions: first compound 0.6325 µM
row,Cell Line,relative viability
1,NCI-H2085,0.455
2,Calu-6,0.989
3,HCC-366,0.11
4,NCI-H1666,0.534
5,NCI-H596,0.419
6,LK-2,0.497
7,NCI-H2087,0.798
8,SK-MES-1,0.353
9,H3255,0.503
10,COR-L23,0.717
11,COR-L 105,0.398
12,IA-LM,0.333
13,LOU-NH91,0.498
14,NCI-H2170,0.28
15,NCI-H2405,0.433
16,HOP-62,0.861

row,Cell Line,relative viability
1,HCC-44,0.552
2,A549,0.555
3,LU99A,0.341
4,BEN,0.496
5,HARA,0.348
6,HCC-78,0.206
7,NCI-H322M,0.518
8,LCLC-97TM1,0.141
9,NCI-H2009,0.712
10,A-427,0.675
11,NCI-H661,0.378
12,NCI-H1734,0.421
13,NCI-H460,0.324
14,NCI-H2347,0.527
15,SK-LU-1,0.577
16,NCI-H1395,0.564

# Same assay, conditions: first compound 2 µM
row,Cell Line,relative viability
1,NCI-H2085,0.486
2,Calu-6,0.973
3,HCC-366,0.117
4,NCI-H1666,0.327
5,NCI-H596,0.377
6,LK-2,0.392
7,NCI-H2087,0.995
8,SK-MES-1,0.335
9,H3255,0.426
10,COR-L23,0.453
11,COR-L 105,0.337
12,IA-LM,0.286
13,LOU-NH91,0.484
14,NCI-H2170,0.258
15,NCI-H2405,0.182
16,HOP-62,0.662

row,Cell Line,relative viability
1,HCC-44,0.514
2,A549,0.464
3,LU99A,0.245
4,BEN,0.556
5,HARA,0.31
6,HCC-78,0.169
7,NCI-H322M,0.434
8,LCLC-97TM1,0.178
9,NCI-H2009,0.744
10,A-427,0.679
11,NCI-H661,0.329
12,NCI-H1734,0.274
13,NCI-H460,0.199
14,NCI-H2347,0.757
15,SK-LU-1,0.506
16,NCI-H1395,0.512
